# Results from ChEMBL document CHEMBL4627246, “Pyroglutamide-Based P2X7 Receptor Antagonists Targeting Inflammatory Bowel Disease” (J Med Chem, 2020).
# Tested on: RXF 393
# Test: Cytotoxicity against human RXF393 cells assessed as effect on cell growth at 10 uM incubated for 48 hrs by sulforhodamine B assay
# Assay type: cell-based
# Conditions: rxf 393, 48 h
row,Compound,Activity
1,COc1cc(CNC(=O)[C@@H]2CCC(=O)N2)cc(OC)c1OC,Non-Toxic
2,COc1ccc(CN2C(=O)CC[C@H]2C(=O)NCCc2ccccc2)cc1,Non-Toxic
3,CN(C)/C=C1\C[C@H]2C(=O)N(Cc3ccc(Cl)cc3Cl)C(N(C)C)N2C1=O (stereo not given in full),Non-Toxic

# Tested on: MDA-MB-231
# Test: Cytotoxicity against human MDA-MB-231 cells assessed as effect on cell growth at 10 uM incubated for 48 hrs by sulforhodamine B assay
# Assay type: cell-based
# Conditions: mda-mb-231, 48 h
row,Compound,Activity
1,COc1cc(CNC(=O)[C@@H]2CCC(=O)N2)cc(OC)c1OC,Non-Toxic
2,COc1ccc(CN2C(=O)CC[C@H]2C(=O)NCCc2ccccc2)cc1,Non-Toxic
3,CN(C)/C=C1\C[C@H]2C(=O)N(Cc3ccc(Cl)cc3Cl)C(N(C)C)N2C1=O (stereo not given in full),Non-Toxic

# Tested on: SF-268
# Test: Cytotoxicity against human SF268 cells assessed as effect on cell growth at 10 uM incubated for 48 hrs by sulforhodamine B assay
# Assay type: cell-based
# Conditions: sf-268, 48 h
row,Compound,Activity
1,COc1cc(CNC(=O)[C@@H]2CCC(=O)N2)cc(OC)c1OC,Non-Toxic
2,COc1ccc(CN2C(=O)CC[C@H]2C(=O)NCCc2ccccc2)cc1,Non-Toxic
3,CN(C)/C=C1\C[C@H]2C(=O)N(Cc3ccc(Cl)cc3Cl)C(N(C)C)N2C1=O (stereo not given in full),Non-Toxic

# Tested on: LOX IMVI
# Test: Cytotoxicity against human LOXIMVI cells assessed as effect on cell growth at 10 uM incubated for 48 hrs by sulforhodamine B assay
# Assay type: cell-based
# Conditions: not given
row,Compound,Activity
1,COc1cc(CNC(=O)[C@@H]2CCC(=O)N2)cc(OC)c1OC,Non-Toxic
2,COc1ccc(CN2C(=O)CC[C@H]2C(=O)NCCc2ccccc2)cc1,Non-Toxic
3,CN(C)/C=C1\C[C@H]2C(=O)N(Cc3ccc(Cl)cc3Cl)C(N(C)C)N2C1=O (stereo not given in full),Non-Toxic

# Tested on: K562
# Test: Cytotoxicity against human K562 cells assessed as effect on cell growth at 10 uM incubated for 48 hrs by sulforhodamine B assay
# Assay type: cell-based
# Conditions: k562, 48 h
row,Compound,Activity
1,COc1cc(CNC(=O)[C@@H]2CCC(=O)N2)cc(OC)c1OC,Non-Toxic
2,COc1ccc(CN2C(=O)CC[C@H]2C(=O)NCCc2ccccc2)cc1,Non-Toxic
3,CN(C)/C=C1\C[C@H]2C(=O)N(Cc3ccc(Cl)cc3Cl)C(N(C)C)N2C1=O (stereo not given in full),Non-Toxic

# Tested on: NCI-H226
# Test: Cytotoxicity against human NCI-H226 cells assessed as effect on cell growth at 10 uM incubated for 48 hrs by sulforhodamine B assay
# Assay type: cell-based
# Conditions: nci-h226, 48 h
row,Compound,Activity
1,COc1cc(CNC(=O)[C@@H]2CCC(=O)N2)cc(OC)c1OC,Non-Toxic
2,COc1ccc(CN2C(=O)CC[C@H]2C(=O)NCCc2ccccc2)cc1,Non-Toxic
3,CN(C)/C=C1\C[C@H]2C(=O)N(Cc3ccc(Cl)cc3Cl)C(N(C)C)N2C1=O (stereo not given in full),Non-Toxic

# Tested on: SK-MEL-5
# Test: Cytotoxicity against human SK-MEL-5 cells assessed as effect on cell growth at 10 uM incubated for 48 hrs by sulforhodamine B assay
# Assay type: cell-based
# Conditions: sk-mel-5, 48 h
row,Compound,Activity
1,COc1cc(CNC(=O)[C@@H]2CCC(=O)N2)cc(OC)c1OC,Non-Toxic
2,COc1ccc(CN2C(=O)CC[C@H]2C(=O)NCCc2ccccc2)cc1,Non-Toxic
3,CN(C)/C=C1\C[C@H]2C(=O)N(Cc3ccc(Cl)cc3Cl)C(N(C)C)N2C1=O (stereo not given in full),Non-Toxic

# Tested on: Hs-578T
# Test: Cytotoxicity against human Hs 578T cells assessed as effect on cell growth at 10 uM incubated for 48 hrs by sulforhodamine B assay
# Assay type: cell-based
# Conditions: not given
row,Compound,Activity
1,COc1cc(CNC(=O)[C@@H]2CCC(=O)N2)cc(OC)c1OC,Non-Toxic
2,COc1ccc(CN2C(=O)CC[C@H]2C(=O)NCCc2ccccc2)cc1,Non-Toxic
3,CN(C)/C=C1\C[C@H]2C(=O)N(Cc3ccc(Cl)cc3Cl)C(N(C)C)N2C1=O (stereo not given in full),Non-Toxic

# Tested on: CCRF-CEM
# Test: Cytotoxicity against human CCRF-CEM cells assessed as effect on cell growth at 10 uM incubated for 48 hrs by sulforhodamine B assay
# Assay type: cell-based
# Conditions: not given
row,Compound,Activity
1,COc1cc(CNC(=O)[C@@H]2CCC(=O)N2)cc(OC)c1OC,Non-Toxic
2,COc1ccc(CN2C(=O)CC[C@H]2C(=O)NCCc2ccccc2)cc1,Non-Toxic
3,CN(C)/C=C1\C[C@H]2C(=O)N(Cc3ccc(Cl)cc3Cl)C(N(C)C)N2C1=O (stereo not given in full),Non-Toxic

# Tested on: MDA-MB-435
# Test: Cytotoxicity against human MDA-MB-435 cells assessed as effect on cell growth at 10 uM incubated for 48 hrs by sulforhodamine B assay
# Assay type: cell-based
# Conditions: mda-mb-435, 48 h
row,Compound,Activity
1,COc1cc(CNC(=O)[C@@H]2CCC(=O)N2)cc(OC)c1OC,Non-Toxic
2,COc1ccc(CN2C(=O)CC[C@H]2C(=O)NCCc2ccccc2)cc1,Non-Toxic
3,CN(C)/C=C1\C[C@H]2C(=O)N(Cc3ccc(Cl)cc3Cl)C(N(C)C)N2C1=O (stereo not given in full),Non-Toxic

# Tested on: CAKI-1
# Test: Growth inhibition of human Caki1 cells assessed as growth percentage at 10 uM incubated for 48 hrs by sulforhodamine B assay
# Assay type: cell-based
# Conditions: caki-1, 48 h
row,Compound,Activity
1,COc1cc(CNC(=O)[C@@H]2CCC(=O)N2)cc(OC)c1OC,Non-Toxic
2,COc1ccc(CN2C(=O)CC[C@H]2C(=O)NCCc2ccccc2)cc1,Non-Toxic
3,CN(C)/C=C1\C[C@H]2C(=O)N(Cc3ccc(Cl)cc3Cl)C(N(C)C)N2C1=O (stereo not given in full),Non-Toxic

# Tested on: BT-549
# Test: Cytotoxicity against human BT549 cells assessed as effect on cell growth at 10 uM incubated for 48 hrs by sulforhodamine B assay
# Assay type: cell-based
# Conditions: bt-549, 48 h
row,Compound,Activity
1,COc1cc(CNC(=O)[C@@H]2CCC(=O)N2)cc(OC)c1OC,Non-Toxic
2,COc1ccc(CN2C(=O)CC[C@H]2C(=O)NCCc2ccccc2)cc1,Non-Toxic
3,CN(C)/C=C1\C[C@H]2C(=O)N(Cc3ccc(Cl)cc3Cl)C(N(C)C)N2C1=O (stereo not given in full),Non-Toxic

# Tested on: SK-MEL-28
# Test: Cytotoxicity against human SK-MEL-28 cells assessed as effect on cell growth at 10 uM incubated for 48 hrs by sulforhodamine B assay
# Assay type: cell-based
# Conditions: sk-mel-28, 48 h
row,Compound,Activity
1,COc1cc(CNC(=O)[C@@H]2CCC(=O)N2)cc(OC)c1OC,Non-Toxic
2,COc1ccc(CN2C(=O)CC[C@H]2C(=O)NCCc2ccccc2)cc1,Non-Toxic
3,CN(C)/C=C1\C[C@H]2C(=O)N(Cc3ccc(Cl)cc3Cl)C(N(C)C)N2C1=O (stereo not given in full),Non-Toxic

# Tested on: MCF7
# Test: Cytotoxicity against human MCF7 cells assessed as effect on cell growth at 10 uM incubated for 48 hrs by sulforhodamine B assay
# Assay type: cell-based
# Conditions: mcf7, 48 h
row,Compound,Activity
1,COc1cc(CNC(=O)[C@@H]2CCC(=O)N2)cc(OC)c1OC,Non-Toxic
2,COc1ccc(CN2C(=O)CC[C@H]2C(=O)NCCc2ccccc2)cc1,Non-Toxic
3,CN(C)/C=C1\C[C@H]2C(=O)N(Cc3ccc(Cl)cc3Cl)C(N(C)C)N2C1=O (stereo not given in full),Non-Toxic

# Tested on: OVCAR-4
# Test: Cytotoxicity against human OVCAR4 cells assessed as effect on cell growth at 10 uM incubated for 48 hrs by sulforhodamine B assay
# Assay type: cell-based
# Conditions: ovcar-4, 48 h
row,Compound,Activity
1,COc1cc(CNC(=O)[C@@H]2CCC(=O)N2)cc(OC)c1OC,Non-Toxic
2,COc1ccc(CN2C(=O)CC[C@H]2C(=O)NCCc2ccccc2)cc1,Non-Toxic
3,CN(C)/C=C1\C[C@H]2C(=O)N(Cc3ccc(Cl)cc3Cl)C(N(C)C)N2C1=O (stereo not given in full),Non-Toxic

# Tested on: UACC-257
# Test: Cytotoxicity against human UACC257 cells assessed as effect on cell growth at 10 uM incubated for 48 hrs by sulforhodamine B assay
# Assay type: cell-based
# Conditions: uacc-257, 48 h
row,Compound,Activity
1,COc1cc(CNC(=O)[C@@H]2CCC(=O)N2)cc(OC)c1OC,Non-Toxic
2,COc1ccc(CN2C(=O)CC[C@H]2C(=O)NCCc2ccccc2)cc1,Non-Toxic
3,CN(C)/C=C1\C[C@H]2C(=O)N(Cc3ccc(Cl)cc3Cl)C(N(C)C)N2C1=O (stereo not given in full),Non-Toxic

# Tested on: OVCAR-3
# Test: Cytotoxicity against human OVCAR3 cells assessed as effect on cell growth at 10 uM incubated for 48 hrs by sulforhodamine B assay
# Assay type: cell-based
# Conditions: ovcar-3, 48 h
row,Compound,Activity
1,COc1cc(CNC(=O)[C@@H]2CCC(=O)N2)cc(OC)c1OC,Non-Toxic
2,COc1ccc(CN2C(=O)CC[C@H]2C(=O)NCCc2ccccc2)cc1,Non-Toxic
3,CN(C)/C=C1\C[C@H]2C(=O)N(Cc3ccc(Cl)cc3Cl)C(N(C)C)N2C1=O (stereo not given in full),Non-Toxic

# Tested on: SK-MEL-2
# Test: Cytotoxicity against human SK-MEL-2 cells assessed as effect on cell growth at 10 uM incubated for 48 hrs by sulforhodamine B assay
# Assay type: cell-based
# Conditions: sk-mel-2, 48 h
row,Compound,Activity
1,COc1cc(CNC(=O)[C@@H]2CCC(=O)N2)cc(OC)c1OC,Non-Toxic
2,COc1ccc(CN2C(=O)CC[C@H]2C(=O)NCCc2ccccc2)cc1,Non-Toxic
3,CN(C)/C=C1\C[C@H]2C(=O)N(Cc3ccc(Cl)cc3Cl)C(N(C)C)N2C1=O (stereo not given in full),Non-Toxic

# Tested on: SN12C
# Test: Cytotoxicity against human SN12C cells assessed as effect on cell growth at 10 uM incubated for 48 hrs by sulforhodamine B assay
# Assay type: cell-based
# Conditions: not given
row,Compound,Activity
1,COc1cc(CNC(=O)[C@@H]2CCC(=O)N2)cc(OC)c1OC,Non-Toxic
2,COc1ccc(CN2C(=O)CC[C@H]2C(=O)NCCc2ccccc2)cc1,Non-Toxic
3,CN(C)/C=C1\C[C@H]2C(=O)N(Cc3ccc(Cl)cc3Cl)C(N(C)C)N2C1=O (stereo not given in full),Non-Toxic

# Tested on: HOP-62
# Test: Cytotoxicity against human HOP62 cells assessed as effect on cell growth at 10 uM incubated for 48 hrs by sulforhodamine B assay
# Assay type: cell-based
# Conditions: hop-62, 48 h
row,Compound,Activity
1,COc1cc(CNC(=O)[C@@H]2CCC(=O)N2)cc(OC)c1OC,Non-Toxic
2,COc1ccc(CN2C(=O)CC[C@H]2C(=O)NCCc2ccccc2)cc1,Non-Toxic
3,CN(C)/C=C1\C[C@H]2C(=O)N(Cc3ccc(Cl)cc3Cl)C(N(C)C)N2C1=O (stereo not given in full),Non-Toxic
